Patent publication US20150030561A1, “Use of CXCR4 Antagonists” (GENZYME CORP., priority 2011, published 2015)
Like-named read-outs stand apart in the source and are kept apart here.

Key:
[1] = tested on: patients with myelokathexis attributable to mutations of CXCR4
Procedure: […] intrapatient escalating dose levels, 20 mcg/kg, 40 mcg/kg, 80 mcg/kg, and 240 mcg/kg were exam in d. The subjects were patients at the University of Washington General Clinical Research Center for up to 10 days; the study requires the subject to be available for up to 14 days.
Complete blood counts were determined at 1, 3, 6, 9 and 24 hours with an automated counter and leukocyte differential counts confirmed manually. CD34^+ cells and lymphocyte subtypes were measured by FACS before and 6 hours after the 0.08 mg/kg dose.

[2] = literature (Liles 2003; DiPersio 2009); cited from earlier work

- hematocrit, hemoglobin and platelet counts ([1]; 10 day testing period, except one patient with severe iron deficiency anemia): stable
SMILES: c1cc(CN2CCCNCCNCCCNCC2)ccc1CN1CCCNCCNCCCNCC1 [plerixafor]
- leukocyte response ([1]; all 6 patients): prompt leukocytosis
- blood neutrophils 24 hours after dose ([1]; another patient, 0.24 mg/kg dose): 2e+09 L⁻¹
- fold increase, peak neutrophil response ([1]; controls (normal subjects similarly treated)): 4.4 fold
- blood neutrophils 24 hours after dose ([1]; one patient, 0.16 mg/kg dose): greater than 2.0 ×10^9/L
- peak blood neutrophils (group mean of highest observed values) ([1]; patient group, single s.c. doses 0.02 to 0.24 mg/kg, mean baseline 0.4±0.1×10^9/L): 4.5±0.78 ×10^9/L
- absolute lymphocyte count increase from baseline to peak levels ([1]; patients): approximately 14 fold
- absolute lymphocyte counts versus normal levels ([1]; patients): transiently reached normal levels
- fold increase, peak neutrophil response ([1]; patients): 8.2 fold
- CD34+ cells increase ([1]; patients, 0.08 mg/kg dose, FACS before and 6 hours after): ~6 fold
- effect on neutropenia and lymphocytopenia ([1]; patients, s.c. single doses): transiently correct neutropenia and lymphocytopenia
- effect on circulating CD34+ cells [2]: increases circulating CD34^+ cells
- leukocyte effect of subcutaneous administration [2]: dose-dependent leukocytosis
